Source: patent US8921424B2, “Histone deacetylase inhibitors, process for preparation and uses thereof” (Zhejiang Hisun Pharmaceutical Co. Ltd., priority 2007, dated 2014)
Like-named read-outs stand apart in the source and are kept apart here.

Tests used:
[1] = test system: SKOV-3; assay: Cell-based proliferation assay (SRB), SKOV-3; settings: Homo sapiens
Protocol: (§1) Cell-Based Proliferation Assay for Determination of GI50 Values
(§2) A rapid multiwell plate assay using Sulforhodamine B (SRB) protein stain was adopted to evaluate the growth inhibitory effects of the compounds of the present invention. The screening panel of cancer cell lines includes Colo205 and HCT116 colon cancer cells, MDA-MB231 and MDA-MB435 chest cancer cells, A549 lung cancer cells, and Chinese hamster ovary cell line CHO, which were obtained from ATCC.
(§3) The cell line Colo205 is grown in RPMI 1640 medium containing 2 mM L-glutamine, 5% fetal bovine serum, and 1.0 mM sodium pyruvic acid. Cell lines A549 and MDA-MB231 are grown in RPMI 1640 medium containing 2 mM L-glutamine and 5% fetal bovine serum. The cell line MDA-MB435 is grown in DMEM medium containing 2 mM L-glutamine and 5% fetal bovine serum. The cell lines HCT 116 is grown in IMEM medium containing 2 mM L-glutamine and 5% fetal bovine serum. The CHO cell line, used as a normal control on toxicity, is grown in a special medium for cell line. For a typical screening experiment, A549 and Colo205 cells are inoculated into 96-well microtiter plates, with 100 μL per well, and 2000 and 5000 cells per well respectively for either cell line. MDA-MB435, HCT116, MDA-MB231 and CHO cells are also inoculated into 96-well microtiter plates, with 6000 cells per well. After cell inoculation, the microtiter plates are incubated at 37° C., 5% CO2, and 100% relative humidity for 24 hr in order to make cells adhere to well wall.
(§4) After 24 h incubation or time zero for drug addition, with each cell line 50 μl of cold 50% (w/v) TCA is added to wells used for control to fix cells in situ. Also at time zero, cells in other wells are treated with 100 μl of compound of different concentrations for 24 hr, 48 hr, and 72 hr respectively, with varying final compound concentration (0.1 μM, 1 μM, 5 μM 10 μM). For each treatment duration at each compound concentration, there are triplicate wells, as well as an array of control wells including a blank control well (cell culture medium only, no cells), a no-compound control well (adding same volume of cell culture medium but no compound), a positive control well (treated with Suberoylanilide hydroxamic acid (SAHA)), and normal cell well control (CHO cells). Following the addition of compounds, cell plates are incubated for 24 h, 48 h or 72 h per treatment group at 37° C., 5% CO2, and 100% relative humidity. The Treatment is then terminated by addition of cold TCA and incubation of 1 hr at 4° C. The supernatant is discarded, and all wells are washed five times with de-ioned water and air dried. Then each well is added with 100 μl sulforhodamine B (SRB) solution (0.4% (w/v) made in 1% acetic acid) and cell plates are incubated for 20-30 minutes at room temperature. After staining, unbound dye is removed by washing five times with 1% acetic acid and the plates are air dried. Bound stain is subsequently solubilized with 10 mM (200 μL) Tris base with the help of 5 min platform vibration or pipetting up and down, and the absorbance is read on an automated plate reader (M5 detection system, MD Group Ltd.) at a wavelength of 565 nm (calibrated zero reading of blank control at wavelength of 690 nm). The analytical software, XL-fit has been used to generate GI50 from a series of data thus obtained.

[2] = test system: BXPC-3; assay: Cell-based proliferation assay (SRB), BXPC-3; settings: Homo sapiens
[3] = test system: MDAMB231; assay: Cell-based proliferation assay (SRB), MDAMB231; settings: Homo sapiens, MDA-MB-231; Table 4
Protocol: as §1, §2, §3, §4

[4] = test system: MDAMB435; assay: Cell-based proliferation assay (SRB), MDAMB435; settings: Homo sapiens
Protocol: as §1, §2, §3, §4

[5] = test system: HCT116; assay: Cell-based proliferation assay (SRB), HCT116; settings: Homo sapiens
Protocol: as §1, §2, §3, §4

[6] = test system: Colo205; assay: Cell-based proliferation assay (SRB), Colo205; settings: Homo sapiens
Protocol: as §1, §2, §3, §4

[7] = Microsomal stability and clearance; type: in vitro ADME, human, mouse; settings: microsomal stability; Table 4
Protocol: Measure of Microsomal Stability and Clearance with Compounds of this Invention
Verapamil (positive control) and compound solution, both at 10 mM, are diluted 200 fold. There are six reaction time points in the experiment (0 min, 5 min, 15 min, 30 min, 45 min, and 60 min), and triplicate samples are used for each data point. There are controls for time zero and negative drug effect (negative control containing no incubation buffer or enzyme). For each compound or Verapamil sample, there are also samples treated with compound or Verapamil at concentrations of no positive effect (at 5 μM and 2.5 μM, respectively). Diluted positive control (Verapamil) and compound solution are mixed with pre-heated (37° C.) incubation buffer (100 mM potassium phosphate buffer, NADPH regeneration system solution B, NAPDH regeneration system solution A, HLM/MLM in Milli-Q ultrapure water), and incubated at 37° C. for 10 min. 100 μL of stop solution mixture is (containing 80% acetonitrile, and 20% DMSO, both of HPLC grade) is dispensed into wells of separate sampling plates into each well. At each reaction time point (0 min, 5 min, 15 min, 30 min, 45 min, and 60 min) 50 μL of reaction solution is taken from wells in the incubation plate and transferred to its corresponding well in the sampling plate, and mixed by pipetting up and down with stop solution already added there. The sampling plates are then covered, placed on ice, and centrifuged at 2,000 rpm at 4° C. for 15 min. 100 μL supernatant is then taken from each well to LC/MS analysis (or stored at 4° C. in refrigerator until analysis).
Data analysis: % remaining of compound is calculated by area of each time point with respect to time 0% remaining against time (min) curve is plotted using the first-phase exponential decay equation y=y0e(−kT) on the Prism 4.0. Results are shown in the format of TOP, K, t1/2 (min), R2 value and % remaining against time curve.

[8] = test system: HL-60; assay: Cell-based proliferation assay (SRB), HL-60; settings: Homo sapiens
[9] = test system: HDACs; assay: In vitro HDACi assay (BIOMOL fluorescent-based HDAC activity assay); type: biochemical
Protocol: (§5) In Vitro HDACi Assay for Determination of IC50 Values
(§6) The assay has been carried out in white 96 well formats according to the BIOMOL's method. […] The reaction mixture was incubated at room temperature for 2 hours. Flur de lys Developer was added and the reaction was incubated for 10 min. Briefly, deacetylation of the substrate sensitizes to the developer, which then generates a fluorophore. The fluorophore is excited with 360 nm light and the emitted light (460 nm) is detected on a fluorometric plate reader (Molecular Device Ultra Microplate detection system, MD Group Ltd).
(§7) The analytical software, Prism 4.0 (GraphPad Software Inc) has been used to generate IC50 from a series of data.

[10] = molecular target: HDAC6 (Homo sapiens (Human), UniProt Q9UBN7); assay: In vitro HDACi assay, HDAC6; type: biochemical; settings: Table 3; read-out: IC50 (nM) HDAC6
Chain of HDAC6 (Q9UBN7 whole entry, species assumed): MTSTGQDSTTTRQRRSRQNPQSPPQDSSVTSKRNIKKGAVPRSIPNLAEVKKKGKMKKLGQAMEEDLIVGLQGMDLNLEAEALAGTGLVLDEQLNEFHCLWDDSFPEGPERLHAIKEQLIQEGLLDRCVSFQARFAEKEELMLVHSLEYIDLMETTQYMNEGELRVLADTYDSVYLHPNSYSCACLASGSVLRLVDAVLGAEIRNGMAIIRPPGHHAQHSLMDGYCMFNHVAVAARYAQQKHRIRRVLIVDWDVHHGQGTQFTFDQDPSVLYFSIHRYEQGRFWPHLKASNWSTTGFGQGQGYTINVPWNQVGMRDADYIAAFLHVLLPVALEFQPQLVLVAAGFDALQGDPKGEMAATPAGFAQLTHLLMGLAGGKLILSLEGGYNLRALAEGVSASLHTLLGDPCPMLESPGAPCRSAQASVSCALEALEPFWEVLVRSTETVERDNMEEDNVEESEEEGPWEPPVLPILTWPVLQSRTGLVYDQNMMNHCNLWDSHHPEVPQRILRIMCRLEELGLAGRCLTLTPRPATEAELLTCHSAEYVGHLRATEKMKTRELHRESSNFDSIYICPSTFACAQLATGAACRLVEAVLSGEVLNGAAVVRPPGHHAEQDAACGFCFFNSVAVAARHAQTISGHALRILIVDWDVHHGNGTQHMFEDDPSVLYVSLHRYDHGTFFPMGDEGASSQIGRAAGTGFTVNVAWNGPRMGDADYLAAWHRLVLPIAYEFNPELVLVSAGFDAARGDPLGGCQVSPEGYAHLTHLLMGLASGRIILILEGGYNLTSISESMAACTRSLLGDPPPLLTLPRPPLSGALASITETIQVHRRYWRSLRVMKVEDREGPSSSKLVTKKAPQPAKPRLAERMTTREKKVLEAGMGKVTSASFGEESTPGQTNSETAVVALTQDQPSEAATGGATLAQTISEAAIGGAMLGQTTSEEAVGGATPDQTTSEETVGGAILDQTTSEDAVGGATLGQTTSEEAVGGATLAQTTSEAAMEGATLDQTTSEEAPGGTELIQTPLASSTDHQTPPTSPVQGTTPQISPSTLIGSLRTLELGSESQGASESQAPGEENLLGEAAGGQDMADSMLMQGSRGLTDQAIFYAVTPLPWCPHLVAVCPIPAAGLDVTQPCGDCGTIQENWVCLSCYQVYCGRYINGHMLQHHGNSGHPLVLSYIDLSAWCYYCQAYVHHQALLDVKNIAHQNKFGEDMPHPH
Protocol: as §5, §6, §7

[11] = Table 3, read-out: IC50 (nM) HDACs
[12] = Table 4, read-out: HDAC enzyme inhibition activity IC50

Structure (SMILES) | GI50 ([1]; SK-OV-3, Table 3) | GI50 ([1]; SK-OV-3, Table 4) | GI50 ([2]; BXPC-3, Table 3) | GI50 [3] | GI50 ([4]; MDA-MB-435, Table 3) | GI50 ([4]; MDA-MB-435, Table 4) | GI50 ([5]; HCT-116, Table 3) | GI50 ([5]; HCT-116, Table 4) | GI50 ([6]; COLO 205, Table 3) | GI50 ([6]; COLO 205, Table 4) | half-life [7] | GI50 ([8]; HL-60, Table 3) | GI50 ([8]; HL-60, Table 4) | IC50 [9, 11] | IC50 [9, 12] | IC50 [10] | GI50 ([2]; BXPC-3, Table 4)
CCN(CC)CCSc1ccc(/C=C/C(=O)NO)cc1NCCCc1ccccc1 [Example 1, 3-(4-(2-(diethylamino)ethylthio)-3-(3-phenylpropylamino)phenyl)-N-hydroxy-acrylamide] | 4.57 µM | 4.57 µM | 15 µM | 3.49 µM | 3.33 µM | 3.33 µM | 0.78 µM | 0.78 µM | 5.68 µM | 5.68 µM | 1.4 h | 3.52 µM | 3.52 µM | 98 nM | 98000 nM | 627 nM | 
CCCNc1cc(/C=C/C(=O)NO)ccc1SCCN(CC)CC [Example 3, 3-(4-(2-(diethylamino)ethylthio)-3-(propylamino)phenyl)-N-hydroxy-acrylamide] | 2.58 µM | 2.58 µM | 14.5 µM | 2.98 µM | 2.6 µM | 2.6 µM | 3.65 µM | 3.65 µM | 2.95 µM | 2.95 µM | 1.8 h | 1.98 µM | 1.98 µM | 19 nM | 19000 nM | 653 nM | 
CCN(CC)CCSc1ccc(/C=C/C(=O)NO)cc1NC(C)=O [Example 4] |  | 0.7 µM |  | 4.63 µM |  | 3.56 µM |  | 2.02 µM |  | 2 µM | 1.6 h |  | 1.63 µM | > 100 nM | 86000 nM | 357 nM | 3.56 µM
CCN(CC)CCSc1ccc(/C=C/C(=O)NO)cc1[N+](=O)[O-] [Example 5, 3-(4-(2-(diethylamino)ethylthio)-3-nitrophenyl)-N-hydroxy-acrylamide] | 0.7 µM |  | 95.4 µM | 1.92 µM | 3.56 µM |  | 2.02 µM |  | 2 µM |  | 2.2 h | 1.63 µM |  | 86 nM | 35000 nM | 313 nM | 
C=CCNc1cc(/C=C/C(=O)NO)ccc1SCCN(CC)CC [Example 7, 3-(3-(allylamino)-4-(2-(di-ethylamino)ethylthio)phenyl)-N-hydroxy-acrylamide] |  |  |  |  |  |  |  |  |  |  |  |  |  | > 100 nM |  | 350 nM | 
CCN(CC)CCSc1ccc(/C=C/C(=O)NO)cc1NC [Example 8, 3-(4-(2-(diethylamino)ethylthio)-3-(methylamino)phenyl)-N-hydroxy-acrylamide] | 15.6 µM |  | 16 µM |  | 16.6 µM |  | 13.9 µM |  | 10.6 µM |  |  | 15.2 µM |  | 95 nM |  | 800 nM | 
CCN(CC)CCSc1ccc(/C=C/C(=O)NO)cc1N [Example 9, 3-(3-amino-4-(2-(diethylamino)ethylthio)phenyl)-N-hydroxy-acrylamide] |  |  |  |  |  |  |  |  |  |  |  |  |  | > 100 nM |  | 295 nM | 
CCCCCNC(=O)Nc1cc(/C=C/C(=O)NO)ccc1SCCN(CC)CC [Example 10, 3-(4-(2-(diethylamino)ethylthio)-3-(3-pentylureido)phenyl)-N-hydroxy-acrylamide] | 16.9 µM |  | 19.9 µM |  | 10.2 µM |  | 18.2 µM |  | 17.6 µM |  |  | 15.7 µM |  | 55 nM |  | 200 nM | 
C=CCCCNc1cc(/C=C/C(=O)NO)ccc1SCCN(CC)CC [Example 12, 3-(4-(2-(diethylamino)ethylthio)-3-(pent-4-enylamino)phenyl)-N-hydroxy-acrylamide] |  |  |  |  |  |  |  |  |  |  |  |  |  | > 100 nM |  | 310 nM | 
CCN(CC)CCSc1ccc(/C=C/C(=O)NO)cc1NC(=O)C(Cl)Cl [Example 13, 3-(3-(2,2-dichloroacetamido)-4-(2-(diethylamino)ethylthio)phenyl)-N-hydroxy-acrylamide] | 3.82 µM |  | 97.7 µM |  | 5.96 µM |  | 2.56 µM |  | 5.63 µM |  |  | 4.31 µM |  |  |  |  | 
